Assays:
[1] = The drug is tested on Z-011 corresponding to mouse gut metagenome with ENA study accession number: PRJEB37062 and ENA sample accession number: ERS12561811 for biotransformation under anaerobic condition. The drug concentrations were measured over 9 timepoints collected between 0 and 24 hours of incubation by liquid-chromatography-coupled mass spectrometry (LC–MS); conditions: 2 µM
[2] = human gut metagenome, 24 h, 2 µM
[3] = The drug is tested on WLS-090 corresponding to human gut metagenome with ENA study accession number: PRJEB37062 and ENA sample accession number: ERS12561753 for biotransformation under anaerobic condition. The drug concentrations were measured over 9 timepoints collected between 0 and 24 hours of incubation by liquid-chromatography-coupled mass spectrometry (LC–MS); conditions: 2 µM
[4] = human gut metagenome, 24 h, 2 µM; remark: listed apart in the source
[5] = human gut metagenome, 24 h, 2 µM; remark: listed apart in the source
[6] = The drug is tested on WLS-370 corresponding to human gut metagenome with ENA study accession number: PRJEB37062 and ENA sample accession number: ERS12561793 for biotransformation under anaerobic condition. The drug concentrations were measured over 9 timepoints collected between 0 and 24 hours of incubation by liquid-chromatography-coupled mass spectrometry (LC–MS); conditions: 2 µM
[7] = The drug is tested on Z-023 corresponding to metagenome with ENA study accession number: PRJEB37062 and ENA sample accession number: ERS12561822 for biotransformation under anaerobic condition. The drug concentrations were measured over 9 timepoints collected between 0 and 24 hours of incubation by liquid-chromatography-coupled mass spectrometry (LC–MS); conditions: 2 µM
[8] = human gut metagenome, 24 h, 2 µM; remark: listed apart in the source
[9] = The drug is tested on WLS-086 corresponding to human gut metagenome with ENA study accession number: PRJEB37062 and ENA sample accession number: ERS12561752 for biotransformation under anaerobic condition. The drug concentrations were measured over 9 timepoints collected between 0 and 24 hours of incubation by liquid-chromatography-coupled mass spectrometry (LC–MS); conditions: 2 µM
[10] = The drug is tested on Z-004 corresponding to metagenome with ENA study accession number: PRJEB37062 and ENA sample accession number: ERS12561804 for biotransformation under anaerobic condition. The drug concentrations were measured over 9 timepoints collected between 0 and 24 hours of incubation by liquid-chromatography-coupled mass spectrometry (LC–MS); conditions: 2 µM
[11] = The drug is tested on Z-030 corresponding to mouse gut metagenome with ENA study accession number: PRJEB37062 and ENA sample accession number: ERS12561829 for biotransformation under anaerobic condition. The drug concentrations were measured over 9 timepoints collected between 0 and 24 hours of incubation by liquid-chromatography-coupled mass spectrometry (LC–MS); conditions: 2 µM
[12] = The drug is tested on Z-009 corresponding to pig gut metagenome with ENA study accession number: PRJEB37062 and ENA sample accession number: ERS12561809 for biotransformation under anaerobic condition. The drug concentrations were measured over 9 timepoints collected between 0 and 24 hours of incubation by liquid-chromatography-coupled mass spectrometry (LC–MS); conditions: 2 µM
[13] = human gut metagenome, 24 h, 2 µM; remark: listed apart in the source
[14] = human gut metagenome, 24 h, 2 µM; remark: listed apart in the source
[15] = human gut metagenome, 24 h, 2 µM; remark: listed apart in the source
[16] = human gut metagenome, 24 h, 2 µM; remark: listed apart in the source
[17] = human gut metagenome, 24 h, 2 µM; remark: listed apart in the source
[18] = human gut metagenome, 24 h, 2 µM; remark: listed apart in the source
[19] = human gut metagenome, 24 h, 2 µM; remark: listed apart in the source
[20] = The drug is tested on Z-029 corresponding to rat gut metagenome with ENA study accession number: PRJEB37062 and ENA sample accession number: ERS12561828 for biotransformation under anaerobic condition. The drug concentrations were measured over 9 timepoints collected between 0 and 24 hours of incubation by liquid-chromatography-coupled mass spectrometry (LC–MS); conditions: 2 µM
Also: call rule not given here.

Row | Structure (SMILES) | Bacterial Biotransformation [1] | Bacterial Biotransformation [2] | Bacterial Biotransformation [3] | Bacterial Biotransformation [4] | Bacterial Biotransformation [5] | Bacterial Biotransformation [6] | Bacterial Biotransformation [7] | Bacterial Biotransformation [8] | Bacterial Biotransformation [9] | Bacterial Biotransformation [10] | Bacterial Biotransformation [11] | Bacterial Biotransformation [12] | Bacterial Biotransformation [13] | Bacterial Biotransformation [14] | Bacterial Biotransformation [15] | Bacterial Biotransformation [16] | Bacterial Biotransformation [17] | Bacterial Biotransformation [18] | Bacterial Biotransformation [19] | Bacterial Biotransformation [20]
1 | CCOC(=O)[C@H](CCc1ccccc1)N[C@@H](C)C(=O)N1[C@H](C(=O)O)C[C@@H]2CCC[C@@H]21 | Compound NOT metabolized | Compound metabolized | Compound metabolized | Compound metabolized | Compound metabolized | Compound metabolized | Compound metabolized | Compound metabolized | Compound metabolized | Compound metabolized | Compound NOT metabolized | Compound metabolized | Compound metabolized | Compound metabolized | Compound metabolized | Compound metabolized | Compound NOT metabolized | Compound metabolized | Compound metabolized | Compound NOT metabolized
2 | CCN(CC)CCNC(C(=O)OCCC(C)C)c1ccccc1.Cl.Cl (stereo not given) | Compound NOT metabolized | Compound metabolized | Compound metabolized | Compound NOT metabolized | Compound metabolized | Compound metabolized | Compound NOT metabolized | Compound metabolized | Compound metabolized | Compound NOT metabolized | Compound NOT metabolized | Compound metabolized | Compound metabolized | Compound NOT metabolized | Compound metabolized | Compound NOT metabolized | Compound NOT metabolized | Compound metabolized | Compound metabolized | Compound NOT metabolized
3 | CCCC(=O)Nc1ccc(OCC(O)CNC(C)C)c(C(C)=O)c1 (stereo not given) [ACEBUTOLOL] | Compound NOT metabolized | Compound metabolized | Compound metabolized | Compound NOT metabolized | Compound NOT metabolized | Compound NOT metabolized | Compound metabolized | Compound metabolized | Compound metabolized | Compound NOT metabolized | Compound NOT metabolized | Compound NOT metabolized | Compound NOT metabolized | Compound metabolized | Compound metabolized | Compound metabolized | Compound NOT metabolized | Compound metabolized | Compound NOT metabolized | Compound NOT metabolized
4 | C=CCc1ccccc1OCC(O)CNC(C)C (stereo not given) [ALPRENOLOL] | Compound NOT metabolized | Compound NOT metabolized | Compound metabolized | Compound NOT metabolized | Compound NOT metabolized | Compound NOT metabolized | Compound metabolized | Compound metabolized | Compound metabolized | Compound NOT metabolized | Compound NOT metabolized | Compound NOT metabolized | Compound NOT metabolized | Compound metabolized | Compound metabolized | Compound metabolized | Compound NOT metabolized | Compound NOT metabolized | Compound metabolized | Compound NOT metabolized
5 | CC(C)c1c(C(=O)Nc2ccccc2)c(-c2ccccc2)c(-c2ccc(F)cc2)n1CC[C@@H](O)C[C@@H](O)CC(=O)O [ATORVASTATIN] | Compound NOT metabolized | Compound metabolized | Compound metabolized | Compound metabolized | Compound metabolized | Compound metabolized | Compound NOT metabolized | Compound metabolized | Compound metabolized | Compound NOT metabolized | Compound NOT metabolized | Compound NOT metabolized | Compound NOT metabolized | Compound metabolized | Compound metabolized | Compound metabolized | Compound NOT metabolized | Compound metabolized | Compound NOT metabolized | Compound NOT metabolized
6 | CCOC(=O)[C@H](CCc1ccccc1)N[C@H]1CCc2ccccc2N(CC(=O)O)C1=O [BENAZEPRIL] | Compound metabolized | Compound metabolized | Compound metabolized | Compound metabolized | Compound metabolized | Compound metabolized | Compound metabolized | Compound metabolized | Compound metabolized | Compound metabolized | Compound metabolized | Compound metabolized | Compound metabolized | Compound metabolized | Compound metabolized | Compound metabolized | Compound NOT metabolized | Compound metabolized | Compound metabolized | Compound metabolized
